From patent US12129267B2, “Heteroaryl amide compounds as sting activators” (Incyte Corporation, priority 2019, dated 2024)

Tested on: IRF3
Test: IRF3 activation assay in THP-1 Dual Cells
Format: cell-based
Details: Homo sapiens, THP1-Dual, 24 hours incubation, QUANTI-Blue readout
Experimental: THP-1 Dual Cells (Invivogen) were maintained in RPMI1640 medium with addition of 10% FBS, 100 μg/mL zeocin, 10 μg/mL blasticidin. Cells were added in a 96-well flat bottom assay plate at 100,000 per well in 100 μL complete RPMI medium. Test compounds were prepared by serial dilution in complete RPMI medium and 100 μL test compounds were transferred to each corresponding well. The assay plate was incubated at 37° C., 5% CO2 for 24 hours. After the overnight incubation, 20 μL of the culture supernatants were collected, followed by addition of 180 μL of QUANTI-Blue (Invivogen) to assess IRF3 activity. The amount of IRF3 activation was assessed by reading the absorbance at 620-655 nm with a microplate reader 2 hours later. The culture supernatant from the untreated THP-1 cells was used as the negative control. To determine the NF-κB activation, another 20 μL of culture supernatant were transferred to a 96-well white plate, followed by addition of 50 μL of Quanti-Luc™ assay solution (Invivogen). The amount of NF-κB activation induced by the test compounds were determined by the luminescence above the untreated control. EC50 determination was performed by fitting the curve of percent control activity versus the log of the compound concentration using the GraphPad Prism 6.0 software.

| SMILES | EC50 [nM] |
| --- | --- |
| CCn1nc(C)cc1C(=O)Nc1nc2cc(C(N)=O)c3ccoc3c2n1C/C=C/Cn1c2nc(-c3cc(C)nn3CC)ncc2c2cc(C(N)=O)cc(OC)c21 [Example 1, (E)-1-(4-(6-carbamoyl-2-(1-ethyl-3-methyl-1H-pyrazol-5-yl)-8-methoxy-9H-pyrimido[4,5-b]indol-9-yl)but-2-en-1-yl)-2-(1-ethyl-3-methyl-1H-pyrazole-5-carboxamido)-1H-benzofuro[6,7-d]imidazole-5-carboxamide] | < 100 |
| CCn1nc(C)cc1C(=O)Nc1nc2cc(C(N)=O)c3ccoc3c2n1C/C=C/Cn1c2nc(-c3cc(C)nn3CC)ncc2c2cc(C(N)=O)cc(OCCCOC)c21 [Example 2, (E)-1-(4-(6-carbamoyl-2-(1-ethyl-3-methyl-1H-pyrazol-5-yl)-8-(3-methoxypropoxy)-9H-pyrimido[4,5-b]indol-9-yl)but-2-en-1-yl)-2-(1-ethyl-3-methyl-1H-pyrazole-5-carboxamido)-1H-benzofuro[6,7-d]imidazole-5-carboxamide] | < 100 |
| CCn1nc(C)cc1C(=O)Nc1nc2cc(C(N)=O)c3ccoc3c2n1C/C=C/Cn1c2nc(-c3cc(C)nn3CC)ncc2c2cc(C(N)=O)cc(OCCCO)c21 [Example 3, (E)-1-(4-(6-carbamoyl-2-(1-ethyl-3-methyl-1H-pyrazol-5-yl)-8-(3-hydroxypropoxy)-9H-pyrimido[4,5-b]indol-9-yl)but-2-en-1-yl)-2-(1-ethyl-3-methyl-1H-pyrazole-5-carboxamido)-1H-benzofuro[6,7-d]imidazole-5-carboxamide] | < 100 |
